One may read the Kd as the concentration at which binding is half-saturated. The MIC50 is an inhibitory concentration at the 50% level, which refers to growth in some studies and to a panel of isolates in others.

In assay [1] the test system is Pseudomonas aeruginosa. Briefly: Antibiofilm activity against Pseudomonas aeruginosa PAO1 after 24 hrs by crystal violet staining based assay. In kind it is functional.
Assay [2] concerns the target T1, Heme oxygenase (Pseudomonas aeruginosa, UniProt O69002).
T1 sequence (O69002 whole entry): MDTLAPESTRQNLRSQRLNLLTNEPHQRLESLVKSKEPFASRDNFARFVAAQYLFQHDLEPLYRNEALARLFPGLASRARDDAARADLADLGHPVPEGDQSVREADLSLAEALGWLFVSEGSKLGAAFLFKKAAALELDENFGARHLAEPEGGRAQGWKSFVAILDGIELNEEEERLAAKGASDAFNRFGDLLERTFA
Nature of the assay: Binding affinity to Pseudomonas aeruginosa HemO by intrinsic fluorescence quenching assay.

The subject of assay [3] is Pseudomonas aeruginosa. Briefly: Antibacterial activity against Pseudomonas aeruginosa PAO1 after 4 hrs in presence of heme or FeCl3. The class given is functional.
For assay [4], the target named is T2, Heme oxygenase (Pseudomonas aeruginosa) (UniProt O69002).
T2 sequence (whole entry): T1 sequence (O69002 whole entry)
Nature of the assay: Binding affinity to Pseudomonas aeruginosa HemO assessed as chemical shift perturbations after 2 hrs by 15N-1H TROSY HSQC NMR method.

The target in assay [5] is T2, Heme oxygenase (Pseudomonas aeruginosa). Briefly: Binding affinity to Pseudomonas aeruginosa HemO by STD-NMR method.

Activity calls are given as the source filed them. No cut-off for these calls is given here.

With `CN(C)CCN1C(=O)C(=Cc2ccc(-c3ccccc3)cc2)SC1=S`, the MBEC99.9 in assay [1] is more than 300 µg/mL. The compound also came in with a Kd in assay [2] of 18 µM. In assay [3], the MIC50 result is “inactive”.

`O=C(O)CCN1C(=O)/C(=C/c2ccc(O)c(O)c2)SC1=S` came in with a dissociation constant Kd in assay [2] of 57 µM.

For `COC(=O)c1ccc(-c2ccc(C=C3SC(=S)N(CCC(=O)O)C3=O)o2)cc1`, binding in assay [2] was characterised by a dissociation constant (Kd) of 28 µM.

Take `N#Cc1cccc(-c2ccc(C=C3SC(=S)N(CCC(=O)O)C3=O)o2)c1`: the Kd in assay [2] came to 13 µM.

As for `COC(=O)c1cc(-c2ccc(C=C3SC(=S)N(CCC(=O)O)C3=O)o2)ccc1N`, the Kd in assay [2] turned out to be 6.5 µM.

The compound `O=C1/C(=C/c2ccco2)SC(=S)N1CCc1nn[nH]n1` returned a Kd in assay [2] of 26 µM.

Turning to `O=C(O)CCN1C(=O)/C(=C/c2ccc(F)cc2)SC1=S`, in assay [2], binding was put at a Kd of 44 µM.

Regarding `O=C(O)CCN1C(=O)C(=Cc2ccc(-c3cccc(O)c3)o2)SC1=S`, the result in assay [4] was Active. In assay [1], the MBEC99.9 is more than 300 µg/mL. Moreover, binding in assay [2] was characterised by a dissociation constant (Kd) of 1.1 µM. Further, in assay [3] (PAO1, 4 h), the MIC50 was more than 300 µg/mL.

Turning to `O=C1/C(=C/c2ccc(O)c(O)c2)SC(=S)N1CCc1nnn[nH]1`, binding in assay [2] was put at a Kd of 45 µM.

With `O=C(O)CCN1C(=O)/C(=C/c2ccc(Cl)c(Cl)c2)SC1=S`, binding in assay [2] was put at a Kd of 14 µM.

In assay [2], `COc1ccc(/C=C2\SC(=S)N(CCC(=O)O)C2=O)cc1` came in with a dissociation constant Kd of 23 µM.

`O=C1/C(=C/c2ccccn2)SC(=S)N1CCc1nnn[nH]1`: the result in assay [4] and in assay [5] was Active. This compound also yielded a Kd in assay [2] of 27 µM.

`O=C(O)CCN1C(=O)C(=Cc2cccc(-c3ccccc3)c2)SC1=S` yielded a Kd in assay [2] of 20 µM.

Regarding `COC(=O)c1cccc(-c2ccc(C=C3SC(=S)N(CCC(=O)O)C3=O)o2)c1`, in assay [2], binding was characterised by a dissociation constant (Kd) of 7.6 µM.

The compound `O=C(O)CCN1C(=O)/C(=C/c2cn(Cc3ccccc3)c3ccccc23)SC1=S` came in with a Kd in assay [2] of 7.4 µM.

Take `O=C(O)CCN1C(=O)C(=Cc2ccc(-c3ccccc3)cc2)SC1=S`: in assay [4], the outcome was Active. The compound further gave an MBEC99.9 in assay [1] of more than 300 µg/mL. Also, binding in assay [2] was put at a Kd of 3.3 µM. For the same compound, the MIC50 in assay [3] (PAO1, 4 h) was more than 300 µg/mL.

In the case of `O=C(O)CCN1C(=O)/C(=C/c2cccc(Nc3ccccc3)c2)SC1=S`, in assay [4], the result was Active. In assay [1], the MBEC99.9 is more than 300 µg/mL. In assay [2], this compound yielded a Kd of 1.2 µM. In addition, the MIC50 in assay [3] (PAO1, 4 h) is more than 300 µg/mL.

As to `CC(C)c1ccc(/C=C2\SC(=S)N(CCC(=O)O)C2=O)cc1`, in assay [2], the Kd was 10 µM.

`O=C(O)CCN1C(=O)C(=Cc2cccc3ccccc23)SC1=S`: binding in assay [2] was characterised by a dissociation constant (Kd) of 13 µM.

`NCCN1C(=O)/C(=C/c2ccc(-c3ccccc3)cc2)SC1=S`: the MBEC99.9 in assay [1] was more than 300 µg/mL. The compound also gave a Kd in assay [2] of 43 µM. For the same compound, the MIC50 in assay [3] (PAO1, 4 h) was more than 300 µg/mL.

In the case of `O=C(O)CCN1C(=O)/C(=C/c2ccccn2)SC1=S`, binding in assay [2] was put at a Kd of 51 µM.

In the case of `O=C(O)CCN1C(=O)/C(=C/c2ccco2)SC1=S`, the Kd in assay [2] was 38 µM.

In the case of `O=C(O)CCN1C(=O)C(=Cc2ccc3ccccc3c2)SC1=S`, binding in assay [2] was characterised by a dissociation constant (Kd) of 3.9 µM.

The compound `O=C(O)CCN1C(=O)/C(=C/c2ccc(Cc3ccccc3)cc2)SC1=S` registered a Kd in assay [2] of 7 µM.

As for `O=C(O)CCN1C(=O)/C(=C/c2ccc(Cl)cc2)SC1=S`, the affinity in assay [2], expressed as Kd, was 15 µM.

For the compound `O=C1Nc2ccc(Cl)cc2/C1=C\c1ccc(-c2ccccc2)cc1`, the MBEC99.9 in assay [1] is more than 300 µg/mL. In addition, the Kd in assay [2] turned out to be 5.2 µM. Also, the MIC50 entry in assay [3] was “inactive”.

On to `O=C(O)CCN1C(=O)/C(=C/c2ccc(Oc3ccccc3)cc2)SC1=S`, for which the Kd in assay [2] was determined as 6.5 µM.

As for `O=C(O)CCN1C(=O)/C(=C/c2c[nH]c3ccccc23)SC1=S`, the affinity in assay [2], expressed as Kd, was 6.4 µM.

On to `O=C1NC(=S)SC1=Cc1ccc(-c2ccccc2)cc1`, for which the MBEC99.9 in assay [1] was more than 300 µg/mL. Further, binding in assay [2] was characterised by a dissociation constant (Kd) of 2.3 µM. Moreover, the MIC50 result in assay [3] was “inactive”.

In assay [2], `COc1cccc(/C=C2\SC(=S)N(CCC(=O)O)C2=O)c1` had a Kd of 25 µM.
